Measured values reported in patent US10081647B2, “Phosphate substituted quinolizine derivatives useful as HIV integrase inhibitors” (Merck Sharp & Dohme Corp., priority 2015, dated 2018).
Where two headings read alike, the source gives them in different places.

System: HIV-1 (NL4-3 strain)
Assay: Assay for inhibition of HIV replication (MT4-gag-GFP reporter cell line, kinetic assay)
Assay type: cell-based
Details: IP from 4-parameter dose response curve
Procedure: This assay is useful for assessing the ability of a compound of the present inventiongin to inhibit HIV replication. The assay is a kinetic assay that employs a reporter cell line (MT4-gag-GFP) to quantify the number of new cells infected in each round of replication.
MT4-GFP cells (250,000 cells/ml) are bulk-infected with HIV-1 (NL4-3 strain) at low multiplicity of infection (MOI) in RPMI+10% FBS for 24 hours. Cells are then washed once in RPMI+10% FBS and resuspended in RPMI+0% or 10% or 100% normal human serum (NHS). Test compounds are serial-diluted in DMSO using an ECHO liquid handler. The infected MT4-GFP cells are added to a 384-well poly-D-lysine coated black plate with clear bottom in which the diluted test compounds are placed. The cells are seeded at 8,000 cells per well and the final DMSO concentration is adjusted to 0.4%. The infected cells (Green GFP cells) are then quantified at both 24 and 48 hours post incubation using Acumen eX3. Viral reproductive ratio (R0) is determined using the number of infected cells at 48 hours divided by the number of infected cells at 24 hours. Percent viral growth inhibition is calculated by [1−(R−Rtripledrug)/(RDMSO−Rtripledrug)]*100. Compound potency IP or IC50 can be determined using a 4-parameter dose response curve analysis.

[1] = infected MT4-GFP cells in 100% normal human serum, read-out: WILD TYPE CELL ASSAY Viking IP (100% NHS)
[2] = infected MT4-GFP cells in RPMI + 0% normal human serum, read-out: WILD TYPE CELL ASSAY Viking IP (0% NHS)
[3] = Human immunodeficiency virus 1, NL43, infected MT4-GFP cells in RPMI + 0% normal human serum, read-out: WILD TYPE CELL ASSAY Viking IP (0% NHS)

CC1(C)C(=O)c2c(O)c(=O)c(C(=O)NCc3ccc(F)cc3F)cn2CC1OCCCP(=O)(O)O (stereo not shown) [Compound 74]
IC50 [1]: > 8.4 µM | IC50 [2]: > 1.05 µM

CCOP(=O)(CCCOCCC1(C)C(=O)c2c(O)c(=O)c(C(=O)NCc3ccc(F)cc3F)cn2CC1OC)OCC (stereo not shown) [Compound 45]
IC50 [1]: 0.3 µM | IC50 [2]: 0.0082 µM

CCOP(=O)(CCOC1Cn2cc(C(=O)NCc3ccc(F)cc3F)c(=O)c(O)c2C(=O)C1(C)C)OCC (stereo not shown) [Compound 65]
IC50 [1]: 0.131 µM | IC50 [2]: 0.0054 µM

COCCC1(C)C(=O)c2c(O)c(=O)c(C(=O)NCc3ccc(F)cc3F)cn2CC1OCCP(=O)(O)O (stereo not shown) [Compound 83]
IC50 [1]: 5.38 µM | IC50 [2]: > 1 µM

CCOP(=O)(CCCOCCC1(C)C(=O)c2c(O)c(=O)c(C(=O)NCc3ccc(F)cc3F)cn2CC1OC)OCC (stereo not shown) [Compound 47]
IC50 [1]: 4.6 µM | IC50 [2]: 0.298 µM

CCOP(=O)(CCNC1Cn2cc(C(=O)NCc3ccc(F)cc3F)c(=O)c(O)c2C(=O)C1(C)C)OCC (stereo not shown) [Compound 102]
IC50 [1]: 0.15 µM | IC50 [2]: 0.025 µM

CCOP(=O)(CCOC1Cn2cc(C(=O)NCc3ccc(F)cc3F)c(=O)c(O)c2C(=O)C1(C)C)OCC (stereo not shown) [Compound 66]
IC50 [1]: 1.28 µM | IC50 [2]: 0.019 µM

COC1Cn2cc(C(=O)NCc3ccc(F)cc3F)c(=O)c(O)c2C(=O)C1(C)CCOCCCP(=O)(O)O (stereo not shown) [Compound 50]
IC50 [1]: > 8.4 µM | IC50 [2]: > 1.05 µM

COCCC1(C)C(=O)c2c(O)c(=O)c(C(=O)NCc3ccc(F)cc3F)cn2CC1OCCP(=O)(O)O (stereo not shown) [Compound 84]
IC50 [1]: 2.93 µM | IC50 [2]: 0.492 µM

COC1Cn2cc(C(=O)NCc3ccc(F)cc3F)c(=O)c(O)c2C(=O)C1(C)CCOCCP(=O)(OCOC(=O)OC(C)C)OCOC(=O)OC(C)C (stereo not shown) [Compound 63]
IC50 [1]: 0.566 µM | IC50 [2]: 0.0046 µM

CCOP(=O)(CCOCC1(C)C(=O)c2c(O)c(=O)c(C(=O)NCc3ccc(F)cc3F)cn2CC1OC)OCC (stereo not shown) [Compound 32]
IC50 [1]: 0.425 µM | IC50 [2]: 0.0075 µM

CCOP(=O)(CCNC1Cn2cc(C(=O)NCc3ccc(F)cc3F)c(=O)c(O)c2C(=O)C1(C)C)OCC (stereo not shown) [Compound 101]
IC50 [3]: 0.05 µM | IC50 [1]: 0.891 µM

COC1Cn2cc(C(=O)NCc3ccc(F)cc3F)c(=O)c(O)c2C(=O)C1(C)COCCP(=O)(O)O (stereo not shown) [Compound 37]
IC50 [1]: > 8 µM | IC50 [2]: > 1 µM

CCOP(=O)(CCOCC1(C)C(=O)c2c(O)c(=O)c(C(=O)NCc3ccc(F)cc3F)cn2CC1OC)OCC (stereo not shown) [Compound 33]
IC50 [1]: 0.188 µM | IC50 [2]: 0.013 µM

CCOP(=O)(CCOC1Cn2cc(C(=O)NCc3ccc(F)cc3F)c(=O)c(O)c2C(=O)C1(C)CCOC)OCC (stereo not shown) [Compound 77]
IC50 [1]: 0.128 µM | IC50 [2]: 0.0055 µM

CC1(C)C(=O)c2c(O)c(=O)c(C(=O)NCc3ccc(F)cc3F)cn2CC1NCCCP(=O)(O)O (stereo not shown) [Compound 108]
IC50 (Human immunodeficiency virus 1, NL43, infected MT4-GFP cells in 100% normal human serum, read-out: WILD TYPE CELL ASSAY Viking IP (100% NHS)): 1.26 µM | IC50 [3]: 0.095 µM

COCCC1(C)C(=O)c2c(O)c(=O)c(C(=O)NCc3ccc(F)cc3F)cn2CC1OCCP(=O)(O)O (stereo not shown) [Compound 81]
IC50 [1]: 2.12 µM | IC50 [2]: 0.665 µM

CC(C)OC(=O)OCOP(=O)(CCOC1Cn2cc(C(=O)NCc3ccc(F)cc3F)c(=O)c(O)c2C(=O)C1(C)C)OCOC(=O)OC(C)C (stereo not shown) [Compound 70]
IC50 [1]: 2.02 µM | IC50 [2]: 0.013 µM

CCOP(=O)(CCOCCC1(C)C(=O)c2c(O)c(=O)c(C(=O)NCc3ccc(F)cc3F)cn2CC1OC)OCC (stereo not shown) [Compound 57]
IC50 [1]: 0.084 µM | IC50 [2]: 0.007 µM

COC1Cn2cc(C(=O)NCc3ccc(F)cc3F)c(=O)c(O)c2C(=O)C1(C)COCCP(=O)(O)O (stereo not shown) [Compound 39]
IC50 [1]: 6.93 µM | IC50 [2]: 0.337 µM

CC(C)OC(=O)OCOP(=O)(CCOC1Cn2cc(C(=O)NCc3ccc(F)cc3F)c(=O)c(O)c2C(=O)C1(C)C)OCOC(=O)OC(C)C (stereo not shown) [Compound 69]
IC50 [1]: 0.025 µM | IC50 [2]: 0.0011 µM

CC(C)OC(=O)OCOP(=O)(CCCOC1Cn2cc(C(=O)NCc3ccc(F)cc3F)c(=O)c(O)c2C(=O)C1(C)C)OCOC(=O)OC(C)C (stereo not shown) [Compound 75]
IC50 [1]: 0.191 µM | IC50 [2]: 0.0063 µM

CCOP(=O)(CCCOCCC1(C)C(=O)c2c(O)c(=O)c(C(=O)NCc3ccc(F)cc3F)cn2CC1OC)OCC (stereo not shown) [Compound 46]
IC50 [1]: 0.102 µM | IC50 [2]: 0.0042 µM
